pIC50: −log10 of the molar value. Where two headings read alike, the source gives them in different places.
Assays:
ATXN2-luc [1] = assay: ATXN2-luc mRNA by quantitative PCR in H2 cells; type: cell-based, human; conditions: 1 and 10 μM, 48 h
Experimental: treated with the indicated doses of DMAG for 48 hours, then ATXN2-luc mRNA abundance was
determined by quantitative PCR using primers that amplify the luciferase gene.

ATXN2 protein = assay: Cerebellar ATXN2 protein by Western blotting in BAC ATXN2-Q22 mice; type: in vivo, mouse; conditions: 100 mg/kg intraperitoneal, every other day over 16 days
Text: Figure 5 Effect of HSP90 inhibitors on ATXN2 cerebellar expression in vivo in BAC ATXN2-Q22 mice. Inhibition of ATXN2 expression by 17-DMAG (A) and HSP990 (B) versus vehicle controls. Mouse ID numbers are shown above the lanes. Western blot analysis showing upregulation of HSP70 expression following 17-DMAG treatment, which indicates successful HSP90 target engagement. The human transgenic ATXN2 protein is indicated as ATXN2-Q22 and the endogenous mouse protein as mATXN2. Values shown are mean and SD. Probabilities are from Student’s t tests: ∗p < 0.05; ∗∗∗p < 0.001. Three blots were quantified. ATXN2, ataxin-2; BAC, bacterial artificial chromosome; 17-DMAG, 17-dimethylaminoethylamino-17-demethoxygeldanamycin; HSP, heat shock protein.
(§1) Control-treated mice included vehicle alone.
Proteins were prepared, separated on precast polyacrylamide gels (Bio-Rad), transferred to Hybond (Amersham), and detected by enhanced chemiluminescence (Amersham) as previously described ([12], [27]). […]

BAC ATXN2-Q22 mice = assay: Survival / tolerability of treated BAC ATXN2-Q22 mice; type: in vivo, mouse; conditions: 100 mg/kg intraperitoneal, every other day over 16 days
Text: Our study identified 11 compounds known to inhibit HSP90, including one that was identified in our original pilot screen. […] 17-DMAG inhibited transcription of ATXN2 in HEK-293 cells in a dose-dependent manner and reduced the abundance of endogenous and mutant ATXN2 proteins in HEK-293 cells (Figs. 3 and 4). […] Toxicity was evident in our in vivo experiment as well. […] However, like for 17-DMAG, BAC ATXN2-Q22 mice treated with HSP990 had 80% reduced ATXN2 protein abundance in the cerebellum (Fig. 5B).
as §1

endogenous ATXN2 = assay: Endogenous ATXN2 mRNA by qPCR in HEK-293 cells; type: cell-based; conditions: Homo sapiens, HEK293; HEK-293 cells; read-out: IC50, endogenous ATXN2 transcription by qPCR
HSP90 = HSP90 target engagement: HSP70 abundance by Western blotting in HEK-293 cells; type: cell-based, human
mutant ATXN2-Q58 protein = assay: Western blotting in HEK-293 ATXN2-Q58 KI cells; type: cell-based, human; conditions: 24 h
Experimental: (§3) To characterize a bioavailable HSP90 inhibitor, we proceeded by using 17-dimethylaminoethylamino-17-demethoxygeldanamycin (17-DMAG, also known as alvespimycin) for inhibition of ATXN2 in cultured cells instead of the original compounds identified in the screen.
Figure 4 Reduction of ATXN2 expression by 17-DMAG restores autophagy and ER stress phenotypes in ATXN2 mutant cells.A, ATXN2-Q58 HEK-293 cells were treated with 17-DMAG at the indicated doses for 24 h, and then proteins were evaluated by Western blotting. Untreated HEK-293 cells with normal A P-eIF2α TXN2 were also included. […] B, quantification of the blots in A. The n number of blots ranged from 3 to 9. Values are means and SD. Probabilities are from one-way ANOVA and post hoc Bonferroni-corrected t tests: ns; ∗p < 0.05; ∗∗p < 0.01, and ∗∗∗p < 0.001.

ATXN2-luc [2] = assay: ATXN2-luc luciferase dose-response in H2 cells, 48 h; type: cell-based; conditions: Homo sapiens, H2 cells, read-out: IC50 for lowering ATXN2-luc
[3] = parameters: method as in PMID 24471734, PMID 15791458; conditions: ref [39], [40]; cited from earlier work
[4] = system: endogenous nonmutant ATXN2 protein; assay: Western blotting of endogenous ATXN2 protein in HEK-293 cells; type: cell-based, human
Text: as §3
Experiments were repeated three times; values are means and SD.

ATXN2-luc [5] = assay: MSSR hit retest: ATXN2-luc luciferase assay, average of H2 and S1 cells (1 and 10 uM); type: cell-based, human; conditions: Homo sapiens; for activity at 1 µM: read-out: H2&S1 ave luc 1uM
Text: (§2) Supplement mmc2.xlsx, sheet "43 annotated compounds"

in vitro = conditions: human
Experimental: The values for H2 and S2 were used as replicates to calculate IC50s and to assess cell viability.
Compounds were plated at 2× concentrations in phenol red–free DMEM in 25 μl in 384-well plates with each compound dose plated in triplicate. An equal volume of S2, H2, or SC cells (24,000 cells/well) suspended in phenol red–free DMEM with 10% fetal bovine serum and 1× penicillin/streptomycin were added. Cells were grown 24 h and then assayed first by using the CellTiter-Fluor reagent (20 μl) followed by the addition of Bright-Glo (65 μl) luciferase assay, using a multimode plate reader (Beckman; DT880). Values were reported as the mean ± SD with n = 3. IC50s were determined by the Hill coefficient method using an online tool (https://www.aatbio.com/tools/ic50-calculator).

ATXN2-luc [6] = assay: Secondary assays: ATXN2-luc in S2 and H2 cells, 12 doses, Bright-Glo; type: cell-based, human; conditions: minimum ATXN2-luc signal over 12 doses, H2 and S2 cells; summary data
H2 and S1 cells = assay: Paired MTT viability assay, average of H2 and S1 cells (1 and 10 uM); type: cell-based, human; conditions: Homo sapiens
Text: as §2

CMV-luc [7] = assay: Secondary assays: CMV-luc in SC cells, Bright-Glo; type: cell-based, human; conditions: minimum CMV-luc signal in SC cells over 12 doses; summary data
ATXN2-luc [8] = assay: MSSR pilot screen: ATXN2-luc luciferase assay (Bright-Glo) in H2 cells, single 10 μM dose; type: cell-based, human; conditions: for SD from mean (ATXN2-luc, Z-score): H2 cells, single dose (title: 10 μM compound), overnight; for ¦Score/1SD¦: absolute score divided by 1SD (0.891 or 0.9)
CMV-luc [9] = assay: MSSR counterscreen: CMV-luc expression in HC cells; type: cell-based, human; conditions: for CMV-luc, averages as percent of no compound control: HC cells, n=4 wells

For CO[C@H]1/C=C\C=C(/C)C(=O)NC2=CC(=O)C(NCCN(C)C)=C(C[C@@H](C)C[C@H](OC)[C@H](O)[C@@H](C)/C=C(\C)[C@@H]1OC(N)=O)C2=O [17-DMAG, 17-dimethylaminoethylamino-17-demethoxygeldanamycin], the “ATXN2-luc transcription (mRNA by qPCR)” value (ATXN2-luc [1]) was “reduction of ATXN2-luc transcription”, the “ATXN2-luc transcription (mRNA by qPCR)” value (ATXN2-luc [1]; listed as DMAG) was “reduces transcription of ATXN2-luc” and the “Reduction of ATXN2 protein in the cerebellum” value (ATXN2 protein) was 90%. For the same molecule, the Tolerability in mice (BAC ATXN2-Q22 mice) was “well tolerated”, the pIC50 (endogenous ATXN2) was 6.12 and the HSP70 abundance (HSP90) was “significantly increased HSP70 abundance”. The “Mutant ATXN2 protein abundance” value (mutant ATXN2-Q58 protein) was “significantly reduced mutant ATXN2 protein”, the pIC50 (ATXN2-luc [2]) was 7.03 and the “Oral bioavailability and blood–brain barrier crossing” value [3] was “orally bioavailable and able to cross the blood–brain barrier”. For the same molecule, the “Abundance of endogenous nonmutant ATXN2 protein” value [4] was “reduced the abundance of endogenous nonmutant ATXN2 protein”.

With C[C@H]1O[C@@H](O[C@H]2[C@@H](O)C[C@H](O[C@H]3[C@@H](O)C[C@H](O[C@H]4CC[C@@]5(C)[C@H](CC[C@@H]6[C@@H]5C[C@@H](O)[C@]5(C)[C@@H](C7=CC(=O)OC7)CC[C@]65O)C4)O[C@@H]3C)O[C@@H]2C)C[C@H](O)[C@@H]1O [Digoxin] the activity at 1 µM (ATXN2-luc [5]) was 47%, the activity (ATXN2-luc [5]; read-out: H2&S1 ave luc 10uM) was 12% and the viability at 24 h (in vitro) was 67.9%. The “min ATXN2-luc (%)” value (ATXN2-luc [6]) was 9.041%, the viability at 1 µM (H2 and S1 cells; read-out: H2&S1 ave MTT 1uM, 1 uM compound) was 78.7% and the viability at 10 µM (H2 and S1 cells; read-out: H2&S1 ave MTT 10uM, 10 uM compound) was 73.5%. The “min SC luc (%)” value (CMV-luc [7]) was 107.579%, the “SD from mean (ATXN2-luc, Z-score)” value (ATXN2-luc [8]) was -3.904 SD and the “SD from mean (pilot screen)” value (ATXN2-luc [8]; pilot screen) was -3.904 SD. The “SD from mean (pilot screen)” value (ATXN2-luc [8]; pilot screen at 10 µM compound, H2 cells expressing ATXN2-luc) was -3.904 and the “¦Score/1SD¦” value (ATXN2-luc [8]; pilot screen) was 4.38.

In the case of COc1ccc(CN2CCN(C(c3ccc(F)cc3)c3ccc(F)cc3)CC2)c(OC)c1OC [LOMERIZINE DiHCl], the activity at 1 µM (ATXN2-luc [5]; 1 uM compound, average of H2 and S1 cells) was 102%, the activity at 10 µM (ATXN2-luc [5]; head line r3 10uM, average of H2 and S1 cells, read-out: H2&S1 ave luc 10uM) was 55% and the “CMV-luc, averages as percent of no compound control” value (CMV-luc [9]; 0.1 uM compound) was 97.7058% of no compound control. The “CMV-luc, averages as percent of no compound control” value (CMV-luc [9]; 1 uM compound) was 102.901% of no compound control, the “CMV-luc, averages as percent of no compound control” value (CMV-luc [9]; 10 uM compound) was 80.3815% of no compound control and the inhibition at 1 µM (CMV-luc [9]; Homo sapiens, read-out: CMV-luc inhibition @ 1 uM) was 0%. For the same molecule, the inhibition at 10 µM (CMV-luc [9]; Homo sapiens, read-out: CMV-luc inhibition @ 10 uM) was 20%, the “ATXN2 luc activity (call)” value (CMV-luc [9]; summary call for the 12 pilot compounds tested on CMV-luc) was “Unclear” and the viability at 1 µM (H2 and S1 cells; 1 uM compound, read-out: H2&S1 ave MTT 1uM) was 101%. The viability at 10 µM (H2 and S1 cells; 10 uM compound, read-out: H2&S1 ave MTT 10uM) was 37.6%, the “SD from mean (ATXN2-luc, Z-score)” value (ATXN2-luc [8]) was -2.782 SD and the “SD from mean (pilot screen)” value (ATXN2-luc [8]; pilot screen) was -2.782 SD. For the same molecule, the “SD from mean (pilot screen)” value (ATXN2-luc [8]; pilot screen, H2 cells expressing ATXN2-luc, single dose printed as 10 μM compound) was -2.782 and the “¦Score/1SD¦” value (ATXN2-luc [8]; pilot screen) was 3.09.

Reference: publication PMC9356275, “A quantitative high-throughput screen identifies compounds that lower expression of the SCA2-and ALS-associated gene ATXN2” (The Journal of Biological Chemistry, 2022)
